Cytotoxicity data for 30 compounds are collected here from patent US11345712B2, “Protein-targeting compounds and pharmaceutical compositions thereof, and their therapeutic applications” (BioTheryX, Inc., priority 2019, dated 2022).

Each structure is given as a SMILES string. Some results are limits rather than exact numbers.

The subject of this assay is MOLM-13 cells. In words: MOLM-13 cell viability assay (CellTiter-Glo). Type of assay: cell-based. Conditions: Homo sapiens, MOLM-13, 72 h, 3 days, concentration of 1 μM, read-out: Antiproliferative Activity (inhibition, MOLM-13 cell viability). In a few lines: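 MOLM-13 AML cells in RPMI 1640 with 10% FBS, seeded at 2,500 cells/well and exposed to compound or DMSO for 3 days at 37° C, 5% CO2. Viability read as CellTiter-Glo luminescence after 10 min shaking.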
A general note: In ATP-based viability assays light output follows the ATP content of the culture.
Turning to `COc1c(F)cccc1CC(=O)NCc1cc2c(s1)C(=O)N(C1CCC(=O)NC1=O)C2` (stereo not drawn) [II-116, N-((5-(2,6-dioxopiperidin-3-yl)-6-oxo-5,6-dihydro-4H-thieno[2,3-c]pyrrol-2-yl)methyl)-2-(3-fluoro-2-methoxyphenyl)acetamide], the cytotoxicity at 1 µM was below 25%.

With `COc1cccc(C(=O)C(=O)NCc2ccc3c(c2)CN(C2CCC(=O)NC2=O)C3=O)c1` (stereo not drawn) [Compound I-95, N-((2-(2,6-dioxopiperidin-3-yl)-1-oxoisoindolin-5-yl)methyl)-2-(3-methoxyphenyl)-2-oxoacetamide], the cytotoxicity at 1 µM was above 80%.

Take `CN(C)c1ccc(CC(=O)NCc2scc3c2CN(C2CCC(=O)NC2=O)C3=O)cc1` (stereo not drawn) [II-61, 2-(4-(dimethylamino)phenyl)-N-((5-(2,6-dioxopiperidin-3-yl)-4-oxo-5,6-dihydro-4H-thieno[3,4-c]pyrrol-1-yl)methyl)acetamide]: the cytotoxicity at 1 µM is below 25%.

As to `Cc1ccc(CCC(C)(C)C(=O)NCc2scc3c2CN([C@H]2CCC(=O)NC2=O)C3=O)cc1Cl` [II-104, (S)-4-(3-chloro-4-methylphenyl)-N-((5-(2,6-dioxopiperidin-3-yl)-4-oxo-5,6-dihydro-4H-thieno[3,4-c]pyrrol-1-yl)methyl)-2,2-dimethylbutanamide], the cytotoxicity at 1 µM is below 25%.

Turning to `O=C1CCC(N2Cc3cc(CNC(=O)C(=O)c4ccncc4)ccc3C2=O)C(=O)N1` (stereo not drawn) [Compound I-103, N-((2-(2,6-dioxopiperidin-3-yl)-1-oxoisoindolin-5-yl)methyl)-2-oxo-2-(pyridin-4-yl)acetamide], the cytotoxicity at 1 µM was below 25%.

Consider `CN(C)c1cc(NC(=O)NCc2cc3c(s2)C(=O)N(C2CCC(=O)NC2=O)C3)cc(C(F)(F)F)c1` (stereo not drawn) [II-50, 1-(3-(dimethylamino)-5-(trifluoromethyl)phenyl)-3-((5-(2,6-dioxopiperidin-3-yl)-6-oxo-5,6-dihydro-4H-thieno[2,3-c]pyrrol-2-yl)methyl)urea], for which the cytotoxicity at 1 µM was above 80%.

`CC(C)C(C(=O)NCc1scc2c1CN(C1CCC(=O)NC1=O)C2=O)c1ccc(C(C)(C)C)cc1` (stereo not drawn) [II-94, 2-(4-(tert-butyl)phenyl)-N-((5-(2,6-dioxopiperidin-3-yl)-4-oxo-5,6-dihydro-4H-thieno[3,4-c]pyrrol-1-yl)methyl)-3-methylbutanamide]: the cytotoxicity at 1 µM is below 25%.

Consider `Cc1ccc(CNC(=O)NCc2cc3c(s2)CN(C2CCC(=O)NC2=O)C3=O)cc1Cl` (stereo not drawn) [II-21, 1-(3-chloro-4-methylbenzyl)-3-((5-(2,6-dioxopiperidin-3-yl)-4-oxo-5,6-dihydro-4H-thieno[2,3-c]pyrrol-2-yl)methyl)urea], for which the cytotoxicity at 1 µM was 50 to 80%.

In the case of `CC(C)(C)c1ccc(C(=O)C(=O)NCc2ccc3c(c2)CN([C@H]2CCCC(=O)NC2=O)C3=O)cc1` [Compound I-10, (S)-2-(4-(tert-butyl)phenyl)-N-((2-(2,7-dioxoazepan-3-yl)-1-oxoisoindolin-5-yl)methyl)-2-oxoacetamide], the cytotoxicity at 1 µM is above 80%.

Turning to `O=C1CCC(N2C(=O)c3cccc(CNC(=O)C(=O)c4ccc(C5(C(F)(F)F)CC5)cc4)c3C2=O)C(=O)N1` (stereo not drawn) [Compound I-58, N-((2-(2,6-dioxopiperidin-3-yl)-1,3-dioxoisoindolin-4-yl)methyl)-2-oxo-2-(4-(1-(trifluoromethyl)cyclopropyl)phenyl)acetamide], the cytotoxicity at 1 µM fell in the range of 50 to 80%.

For the compound `NC(C(=O)NCc1scc2c1CN(C1CCC(=O)NC1=O)C2=O)c1cccc(Cl)c1` (stereo not drawn) [II-89, 2-amino-2-(3-chlorophenyl)-N-((5-(2,6-dioxopiperidin-3-yl)-4-oxo-5,6-dihydro-4H-thieno[3,4-c]pyrrol-1-yl)methyl)acetamide], the cytotoxicity at 1 µM is below 25%.

Regarding `Cc1ccc(NCCCNCc2cc3c(s2)C(=O)N(C2CCC(=O)NC2=O)C3)cc1Cl` (stereo not drawn) [II-65, 3-(2-(((3-((3-chloro-4-methylphenyl)amino)propyl)amino)methyl)-6-oxo-4,6-dihydro-5H-thieno[2,3-c]pyrrol-5-yl)piperidine-2,6-dione], the cytotoxicity at 1 µM was below 25%.

For the compound `O=C1CCC(N2Cc3cc(CNC(=O)NCc4c(Cl)cccc4Cl)sc3C2=O)C(=O)N1` (stereo not drawn) [II-36, 1-(2,6-dichlorobenzyl)-3-((5-(2,6-dioxopiperidin-3-yl)-6-oxo-5,6-dihydro-4H-thieno[2,3-c]pyrrol-2-yl)methyl)urea], the cytotoxicity at 1 µM was 50 to 80%.

As for `C=C(C(=O)NCc1scc2c1CN(C1CCC(=O)NC1=O)C2=O)c1ccc(C)c(Cl)c1` (stereo not drawn) [II-67, 2-(3-chloro-4-methylphenyl)-N-((5-(2,6-dioxopiperidin-3-yl)-4-oxo-5,6-dihydro-4H-thieno[3,4-c]pyrrol-1-yl)methyl)propenamide], the cytotoxicity at 1 µM was below 25%.

As for `Cc1c(CNC(=O)C(=O)c2ccc(C3(C(F)(F)F)CC3)cc2)ccc2c1CN(C1CCC(=O)NC1=O)C2=O` (stereo not drawn) [Compound I-60, N-((2-(2,6-dioxopiperidin-3-yl)-4-methyl-1-oxoisoindolin-5-yl)methyl)-2-oxo-2-(4-(1-(trifluoromethyl)cyclopropyl)phenyl)acetamide], the cytotoxicity at 1 µM fell in the range of 50 to 80%.

`O=C1CCC(N2Cc3c(NC(=O)C(=O)c4ccc(C5(C(F)(F)F)CC5)cc4)cccc3C2=O)C(=O)N1` (stereo not drawn) [Compound I-57, N-(2-(2,6-dioxopiperidin-3-yl)-1-oxoisoindolin-4-yl)-2-oxo-2-(4-(1-(trifluoromethyl)cyclopropyl)phenyl)acetamide]: the cytotoxicity at 1 µM was below 25%.

For the compound `COc1cc(OC)c(C(=O)C(=O)NCc2ccc3c(c2)CN(C2CCC(=O)NC2=O)C3=O)c(OC)c1` (stereo not drawn) [Compound I-84, N-((2-(2,6-dioxopiperidin-3-yl)-1-oxoisoindolin-5-yl)methyl)-2-oxo-2-(2,4,6-trimethoxyphenyl)acetamide], the cytotoxicity at 1 µM fell in the range of 25 to 50%.

Regarding `O=C1CCC(N2Cc3cc(CNC(=O)C(=O)c4ccccc4)ccc3C2=O)C(=O)N1` (stereo not drawn) [Compound I-83, N-((2-(2,6-dioxopiperidin-3-yl)-1-oxoisoindolin-5-yl)methyl)-2-oxo-2-phenylacetamide], the cytotoxicity at 1 µM was above 80%.

Regarding `CC(C)(C)C1CCN(C(=O)C(=O)NCc2ccc3c(c2)CN(C2CCC(=O)NC2=O)C3=O)CC1` (stereo not drawn) [Compound I-62, 2-(4-(tert-butyl)piperidin-1-yl)-N-((2-(2,6-dioxopiperidin-3-yl)-1-oxoisoindolin-5-yl)methyl)-2-oxoacetamide], the cytotoxicity at 1 µM is above 80%.

Consider `NC(C(=O)NCc1scc2c1CN(C1CCC(=O)NC1=O)C2=O)c1ccc(O)cc1` (stereo not drawn) [II-113, 2-amino-N-((5-(2,6-dioxopiperidin-3-yl)-4-oxo-5,6-dihydro-4H-thieno[3,4-c]pyrrol-1-yl)methyl)-2-(4-hydroxyphenyl)acetamide], for which the cytotoxicity at 1 µM was below 25%.

As for `CN(C)Cc1cccc(NC(=O)NCc2cc3c(s2)C(=O)N(C2CCC(=O)NC2=O)C3)c1` (stereo not drawn) [II-53, 1-(3-((dimethylamino)methyl)phenyl)-3-((5-(2,6-dioxopiperidin-3-yl)-6-oxo-5,6-dihydro-4H-thieno[2,3-c]pyrrol-2-yl)methyl)urea], the cytotoxicity at 1 µM was below 25%.

On to `CN(C)c1cccc(NC(=O)NCc2cc3c(s2)C(=O)N(C2CCC(=O)NC2=O)C3)c1` (stereo not drawn) [II-48, 1-(3-(dimethylamino)phenyl)-3-((5-(2,6-dioxopiperidin-3-yl)-6-oxo-5,6-dihydro-4H-thieno[2,3-c]pyrrol-2-yl)methyl)urea], for which the cytotoxicity at 1 µM is above 80%.

Consider `CN(C)CCOc1ccc(CC(=O)NCc2scc3c2CN(C2CCC(=O)NC2=O)C3=O)cc1` (stereo not drawn) [II-80, 2-(4-(2-(dimethylamino)ethoxy)phenyl)-N-((5-(2,6-dioxopiperidin-3-yl)-4-oxo-5,6-dihydro-4H-thieno[3,4-c]pyrrol-1-yl)methyl)acetamide], for which the cytotoxicity at 1 µM was below 25%.

Take `CC(C)(C)c1ccc(C(O)C(=O)NCc2scc3c2CN(C2CCC(=O)NC2=O)C3=O)cc1` (stereo not drawn) [II-132, 2-(4-(tert-butyl)phenyl)-N-((5-(2,6-dioxopiperidin-3-yl)-4-oxo-5,6-dihydro-4H-thieno[3,4-c]pyrrol-1-yl)methyl)-2-hydroxyacetamide]: the cytotoxicity at 1 µM was 25 to 50%.

On to `O=C1CCC(N2Cc3c(csc3CNC(=O)C(=O)c3cccs3)C2=O)C(=O)N1` (stereo not drawn) [Compound I-9, N-((5-(2,6-dioxopiperidin-3-yl)-4-oxo-5,6-dihydro-4H-thieno[3,4-c]pyrrol-1-yl)methyl)-2-(thiophen-2-yl)-2-oxoacetamide], for which the cytotoxicity at 1 µM was below 25%.

For `O=C1CCC(N2Cc3c(CNC(=O)C(=O)c4ccc(Cl)cc4)cccc3C2=O)C(=O)N1` (stereo not drawn) [Compound I-77, 2-(4-chlorophenyl)-N-((2-(2,6-dioxopiperidin-3-yl)-1-oxoisoindolin-4-yl)methyl)-2-oxoacetamide], the cytotoxicity at 1 µM is below 25%.

`O=C1CCC(N2Cc3c(csc3CNC(=O)C(=O)c3ccc(C(F)(F)F)cc3)C2=O)C(=O)N1` (stereo not drawn) [Compound I-23, 2-(4-trifluoromethylphenyl)-N-((5-(2,6-dioxopiperidin-3-yl)-4-oxo-5,6-dihydro-4H-thieno[3,4-c]pyrrol-1-yl)methyl)-2-oxoacetamide]: the cytotoxicity at 1 µM was below 25%.

As for `CCc1ccc(NC(=O)NCc2cc3c(s2)C(=O)N(C2CCC(=O)NC2=O)C3)cc1N(C)C` (stereo not drawn) [II-96, 1-(3-(dimethylamino)-4-ethylphenyl)-3-((5-(2,6-dioxopiperidin-3-yl)-6-oxo-5,6-dihydro-4H-thieno[2,3-c]pyrrol-2-yl)methyl)urea], the cytotoxicity at 1 µM is above 80%.

Turning to `O=C1CCC(N2Cc3c(CNC(=O)C(=O)c4ccc(F)c(F)c4)cccc3C2=O)C(=O)N1` (stereo not drawn) [Compound I-73, 2-(3,4-difluorophenyl)-N-((2-(2,6-dioxopiperidin-3-yl)-1-oxoisoindolin-4-yl)methyl)-2-oxoacetamide], the cytotoxicity at 1 µM was below 25%.

With `O=C1CCC(N2Cc3c(CNC(=O)C(=O)c4cccc(F)c4)cccc3C2=O)C(=O)N1` (stereo not drawn) [Compound I-92, 2-(3-fluorophenyl)-N-((2-(2,6-dioxopiperidin-3-yl)-1-oxoisoindolin-4-yl)methyl)-2-oxoacetamide], the cytotoxicity at 1 µM lay within 50 to 80%.
